Assay: xn = mol fraction of the nth substance listed

CC(C)CO + C1COCCO1
298.15 K, 101 kPa
Conditions	viscosity [mPa·s]
x2 = 0.0416	2.787
x2 = 0.125	2.14
x2 = 0.2354	1.668
x2 = 0.3104	1.489
x2 = 0.4165	1.296
x2 = 0.4739	1.231
x2 = 0.5066	1.206
x2 = 0.5756	1.153
x2 = 0.5788	1.144
x2 = 0.7141	1.107
x2 = 0.7411	1.098
x2 = 0.7859	1.107
x2 = 0.832	1.099
x2 = 0.8845	1.109
x2 = 0.9419	1.131

Cc1ccccc1O + Oc1ccccc1
298.15 K, 101 kPa
Conditions	viscosity [mPa·s]
x2 = 0.1343	7.835
x2 = 0.1973	7.93
x2 = 0.3	8.099
x2 = 0.3881	8.235
x2 = 0.491	8.404
x2 = 0.6283	8.565
x2 = 0.6927	8.645
x2 = 0.7579	8.731
x2 = 0.8003	8.757
x2 = 0.873	8.825
x2 = 0.901	8.851

CCCCCOC(C)=O + CCCCO
viscosity [mPa·s], 101.33 kPa
Conditions	x1 = 0.1138	x1 = 0.2047	x1 = 0.3089	x1 = 0.4008	x1 = 0.5	x1 = 0.6103	x1 = 0.7064	x1 = 0.8088	x1 = 0.9025
293.15 K	2.52	2.275	2.024	1.825	1.633	1.443	1.295	1.154	1.039
303.15 K	2.02	1.838	1.649	1.499	1.353	1.206	1.092	0.982	0.891
313.15 K	1.515	1.395	1.269	1.167	1.066	0.964	0.883	0.805	0.739
323.15 K	1.009	0.948	0.883	0.83	0.776	0.72	0.674	0.629	0.59

CC(C)(C)c1ccccc1 + Cc1ccccc1
303.15 K, 101.3 kPa
Conditions	viscosity [mPa·s]
x2 = 0.0457	0.974
x2 = 0.0865	0.949
x2 = 0.2449	0.8605
x2 = 0.3937	0.7829
x2 = 0.4453	0.7568
x2 = 0.5167	0.7206
x2 = 0.6672	0.6507
x2 = 0.7678	0.6057
x2 = 0.8687	0.5626
x2 = 0.957	0.5317
x2 = 0.9788	0.5253

CCCCCOC(C)=O + C1COCCO1
303.15 K, 101.3 kPa
Conditions	viscosity [mPa·s]
x2 = 0.0981	0.7721
x2 = 0.2981	0.8134
x2 = 0.505	0.8719
x2 = 0.7018	0.9452
x2 = 0.9003	1.037

From the CheMixHub viscosity set
